Test systems include SF-268 CNS; HCT-15 colon; SK-MEL-5 melanoma; SF-539 CNS; NCI-H226 lung; RXF 393 renal; UACC-257 melanoma; HOP-62 NSCLC; OVCAR-5 ovarian; BT-549 breast.
What all share (test): NCI tumour cell line growth inhibition, 48 h

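Method: 48-hour compound exposure of cells in 96-well plates, five concentrations, linear interpolation of endpoints. At the GI50, growth is halved. TGI denotes the concentration required for complete inhibition of growth.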

This note sets out measurements from PubChem BioAssay (NCI).

Take `COc1ccccc1C1C(C(=O)O)=C(CO)Oc2cc3c(cc21)OCO3` (stereo not drawn): the TGI in the test on SF-268 CNS, with HCT-15 colon, with SK-MEL-5 melanoma, in the test on SF-539 CNS and in the test with NCI-H226 lung was greater than 100 µM throughout.

As for `C[C@]12C=CC(=O)C=C1CC[C@H]1[C@@H]3C[C@@H](O)[C@](O)(C(=O)CO)[C@@]3(C)C[C@H](O)[C@@]12F`, the TGI in the test on RXF 393 renal, with SF-268 CNS, in the test with HCT-15 colon, with SK-MEL-5 melanoma, in the test on SF-539 CNS and in the test on UACC-257 melanoma was greater than 100 µM each time. Further, the TGI in the test with NCI-H226 lung, in the test on HOP-62 NSCLC and in the test on OVCAR-5 ovarian was greater than 100 µM throughout.

As for `CCOC(=O)C1(Cc2ccc3c(c2)CCC3)Cc2cc3c(cc2C1)CCC3`, the TGI in the test with SF-268 CNS is greater than 100 µM; with HCT-15 colon, greater than 100 µM; in the test with SF-539 CNS, 99.4 µM; in the test on BT-549 breast it was greater than 100 µM; in the test on UACC-257 melanoma, 86.2 µM; in the test with NCI-H226 lung, 81.9 µM. In addition, the TGI in the test with HOP-62 NSCLC and in the test with OVCAR-5 ovarian was greater than 100 µM in each case.

In the case of `N#C/C(C(=O)Nc1ccccc1)=C(/N)N1CCOCC1`, the TGI in the test with HCT-15 colon, in the test with SK-MEL-5 melanoma, with SF-539 CNS, in the test with BT-549 breast, with UACC-257 melanoma and in the test on NCI-H226 lung was greater than 100 µM in each case. The TGI with HOP-62 NSCLC and with OVCAR-5 ovarian was greater than 100 µM throughout.

In the case of `CC1CC=CC(O)C1` (stereo not drawn), the TGI with RXF 393 renal, in the test on SF-268 CNS, in the test with HCT-15 colon, with SK-MEL-5 melanoma, in the test on SF-539 CNS and with UACC-257 melanoma was greater than 100 µM each time. The TGI in the test with NCI-H226 lung, in the test on HOP-62 NSCLC and with OVCAR-5 ovarian was greater than 100 µM each time.

`CCC1(CC)SCc2nc3ccccc3n21`: the TGI in the test with RXF 393 renal is 94.5 µM; in the test with SF-268 CNS, greater than 100 µM; in the test on HCT-15 colon it was greater than 100 µM; in the test with SK-MEL-5 melanoma it was 36.5 µM; in the test on SF-539 CNS, greater than 100 µM; in the test with UACC-257 melanoma, 71.9 µM. The TGI was 88.8 µM in the test with NCI-H226 lung, greater than 100 µM in the test with HOP-62 NSCLC and greater than 100 µM in the test with OVCAR-5 ovarian.

As to `CC(=O)NC1C(OCc2ccccc2)OC(CO)C(O)C1OC(C)C(=O)NC(C)C(=O)NC(CCC(=O)NCCCNc1c2ccccc2nc2cccc([N+](=O)[O-])c12)C(N)=O` (stereo not drawn), the TGI in the test on RXF 393 renal was 3.04 µM; with SF-268 CNS, 6.32 µM; in the test with HCT-15 colon, 7.3 µM; in the test with SK-MEL-5 melanoma it was 2.47 µM; in the test with SF-539 CNS, 19.3 µM; in the test on UACC-257 melanoma it was 4.71 µM. Also, the TGI in the test with NCI-H226 lung was 11.2 µM; in the test on HOP-62 NSCLC, 8.78 µM; in the test with OVCAR-5 ovarian, 8.02 µM.

On to `CC1=C(C#N)C(C#N)(C#N)C(NN(C)C)C1` (stereo not drawn), for which the TGI with RXF 393 renal was 31.3 µM; in the test with SF-268 CNS, 78.7 µM; in the test on HCT-15 colon, 21.3 µM; in the test on SK-MEL-5 melanoma, 17.5 µM; with SF-539 CNS it was greater than 100 µM; in the test on UACC-257 melanoma it was 26.4 µM. In addition, the TGI with HOP-62 NSCLC was found to be 30.4 µM; in the test with OVCAR-5 ovarian, 47.4 µM.

With `COc1ccc(C(=O)Sc2c(-c3ccccc3)c(=O)n(-c3ccccc3)c(=S)n2-c2ccccc2)cc1`, the TGI was 98.4 µM with RXF 393 renal; greater than 100 µM in the test with SF-268 CNS; greater than 100 µM in the test with HCT-15 colon; 35.6 µM with SF-539 CNS; greater than 100 µM in the test on UACC-257 melanoma; 58.7 µM in the test on NCI-H226 lung. The TGI with HOP-62 NSCLC and in the test with OVCAR-5 ovarian was greater than 100 µM each time.

As for `CC(=O)c1c2c(cc3c1CC1(Cc4ccccc4C1=O)C3)CCC2` (stereo not drawn), the TGI in the test on RXF 393 renal was 59.1 µM; with SF-268 CNS, greater than 100 µM; in the test on HCT-15 colon, greater than 100 µM; in the test with SK-MEL-5 melanoma, 23 µM; with SF-539 CNS it was greater than 100 µM; in the test with UACC-257 melanoma it was 64.6 µM. In addition, the TGI in the test with NCI-H226 lung was 72.4 µM; in the test on HOP-62 NSCLC, greater than 100 µM; in the test with OVCAR-5 ovarian it was greater than 100 µM.

On to `CNC(=S)N(C)C(=S)Nn1c(=O)c(C)nn(C)c1=S`, for which the TGI with RXF 393 renal, in the test with SF-268 CNS, in the test with HCT-15 colon, in the test on SK-MEL-5 melanoma, in the test on SF-539 CNS and in the test on UACC-257 melanoma was greater than 100 µM in each case. Moreover, the TGI with NCI-H226 lung, in the test on HOP-62 NSCLC and in the test with OVCAR-5 ovarian was greater than 100 µM in each case.

As to `COc1cc(C[S+]2CCCC2)c(SC)cc1C[S+]1CCCC1`, the TGI in the test on RXF 393 renal, with SF-268 CNS, in the test on HCT-15 colon, with SK-MEL-5 melanoma, with SF-539 CNS and in the test on UACC-257 melanoma was greater than 100 µM throughout. For the same molecule, the TGI in the test on NCI-H226 lung, in the test on HOP-62 NSCLC and in the test with OVCAR-5 ovarian was greater than 100 µM throughout.

On to `CC(=O)OC1CCC2(C)C3CCC4(C)C(c5ccc(=O)oc5)CC5OC54C3CCC2(O)C1` (stereo not drawn), for which the TGI in the test on RXF 393 renal was found to be 1.61 µM; with SF-268 CNS it was 2.57 µM; in the test on HCT-15 colon, 14.6 µM; in the test with SK-MEL-5 melanoma, 4.76 µM; in the test with SF-539 CNS it was 2.78 µM; with UACC-257 melanoma, 19.5 µM. Further, the TGI is 25.1 µM in the test with NCI-H226 lung, 3.41 µM in the test with HOP-62 NSCLC and 22.4 µM with OVCAR-5 ovarian.

As to `O=C(CC(=O)Nc1cccc(C(=O)O)c1)Nc1cccc(C(=O)O)c1`, the TGI in the test with SF-268 CNS, in the test with HCT-15 colon, in the test on SK-MEL-5 melanoma, in the test with SF-539 CNS, with BT-549 breast and in the test with UACC-257 melanoma was greater than 100 µM each time. The TGI in the test on NCI-H226 lung and in the test on HOP-62 NSCLC was greater than 100 µM each time.

As to `Cc1ccc(S(=O)(=O)N/N=C/C(=C/c2ccc(Cl)cc2)CC(/C=N/NS(=O)(=O)c2ccc(C)cc2)=C\c2ccc(Cl)cc2)cc1`, the TGI was 7.38 µM with RXF 393 renal; 55.2 µM in the test with SF-268 CNS; 12.3 µM with HCT-15 colon; 13.9 µM in the test on SK-MEL-5 melanoma; 34.2 µM with SF-539 CNS; 63.6 µM in the test on UACC-257 melanoma. Besides, the figures for the TGI in the test with NCI-H226 lung, in the test on HOP-62 NSCLC and in the test on OVCAR-5 ovarian were 38 µM, 70.8 µM and 35.5 µM, respectively.

In the case of `O=C(OC(=O)n1ccc2ccccc21)n1ccc2ccccc21`, the TGI in the test on RXF 393 renal, in the test on SF-268 CNS, in the test on HCT-15 colon, with SK-MEL-5 melanoma, in the test on SF-539 CNS and with UACC-257 melanoma was greater than 100 µM each time. Also, the TGI in the test on NCI-H226 lung, with HOP-62 NSCLC and in the test with OVCAR-5 ovarian was greater than 100 µM throughout.

Consider `C=C1CC(c2ccc(OCCCN3C(=O)c4ccccc4C3=O)c(OC)c2)OC1=O` (stereo not drawn), for which the TGI in the test on RXF 393 renal stood at 7 µM; with SF-268 CNS, 23 µM; in the test with HCT-15 colon, 18.6 µM; in the test with SK-MEL-5 melanoma it was 23.2 µM; with SF-539 CNS, 1.69 µM; with UACC-257 melanoma, 12.8 µM. Besides, the TGI with NCI-H226 lung was determined as 23.4 µM; in the test on HOP-62 NSCLC, 30.6 µM; in the test on OVCAR-5 ovarian, 31.9 µM.

Consider `C[C@]12CC[C@H](O)CC1=CC[C@@H]1[C@@H]2CC[C@]2(C)C(=O)[C@@H](N3CCOCC3)C[C@@H]12`, for which the TGI in the test with RXF 393 renal, in the test with SF-268 CNS, in the test on HCT-15 colon, in the test with SK-MEL-5 melanoma, with SF-539 CNS and in the test with UACC-257 melanoma was greater than 100 µM throughout. For the same molecule, the TGI in the test with NCI-H226 lung, in the test with HOP-62 NSCLC and in the test with OVCAR-5 ovarian was greater than 100 µM each time.

On to `O=NN(CCCl)C(=O)NC1CCSc2ccccc21` (stereo not drawn), for which the TGI in the test on RXF 393 renal is greater than 100 µM; with SF-268 CNS, greater than 100 µM; in the test with HCT-15 colon, greater than 100 µM; with SK-MEL-5 melanoma, greater than 100 µM; in the test with SF-539 CNS, greater than 74.5 µM; with UACC-257 melanoma, greater than 100 µM. The TGI in the test on NCI-H226 lung, in the test on HOP-62 NSCLC and in the test on OVCAR-5 ovarian was greater than 100 µM in each case.

Take `Cc1ccc(S(=O)(=O)Oc2cc(-c3ccccc3)nc3ccccc23)cc1`: the TGI with RXF 393 renal was 11.9 µM; with SF-268 CNS it was greater than 100 µM; with HCT-15 colon it was greater than 40.3 µM; in the test on SK-MEL-5 melanoma it was 21.3 µM; in the test with SF-539 CNS, 4.87 µM; with UACC-257 melanoma, 52.2 µM. Besides, the figures for the TGI with NCI-H226 lung, in the test on HOP-62 NSCLC and with OVCAR-5 ovarian were 26.5 µM, 18.8 µM and 62 µM, respectively.

Take `CC(=O)OCCn1cnc2nc(Nc3ccccc3)nc(Cl)c21`: the TGI in the test on SF-268 CNS, with HCT-15 colon, in the test with SK-MEL-5 melanoma, in the test on SF-539 CNS, in the test on UACC-257 melanoma and in the test with NCI-H226 lung was greater than 100 µM each time. The TGI with HOP-62 NSCLC and in the test with OVCAR-5 ovarian was greater than 100 µM throughout.

As for `Cc1ccc2c(n1)C(=O)c1[nH]c3ccccc3c1C2=O`, the GI50 was 2.72 µM in the test with RXF 393 renal; 3.82 µM in the test on SF-268 CNS; 0.212 µM in the test on SK-MEL-5 melanoma; 2.15 µM in the test on SF-539 CNS; 0.513 µM in the test with UACC-257 melanoma; 1.36 µM in the test with NCI-H226 lung. The GI50 with OVCAR-5 ovarian was 2.11 µM. In addition, the TGI in the test with RXF 393 renal was 55.4 µM; in the test with SF-268 CNS it was greater than 100 µM; in the test on SK-MEL-5 melanoma, 0.583 µM; in the test with SF-539 CNS, 5.11 µM; in the test on UACC-257 melanoma, 2.05 µM; in the test on NCI-H226 lung, 3.65 µM. The molecule further yielded a TGI in the test with OVCAR-5 ovarian of 4.54 µM.
